Test results as given in article PMC10066365, “Nemacol is a small molecule inhibitor of C. elegans vesicular acetylcholine transporter with anthelmintic potential” (Nature Communications, 2023).
Values joined by “and” are separate entries in the source; they are usually repeats but may differ in a detail not shown here. Equal values may be shown once.

Columns and labels:
C. elegans = C. elegans motor phenotype scoring on solid media (Punc/jerky-unc, coiled, paralyzed), wild-type young adults; type: in vivo, Caenorhabditis elegans; conditions: for EC50: Caenorhabditis elegans, any motor phenotype after 1 h on solid media, ± 95% CI, read-out: C. elegans - motor disruption EC50; for atypical locomotion (number of animals) / coiled (number of animals) / no phene (number of animals) / paralyzed (number of animals): young adults, 20 animals per trial, single technical replicate
[1] = tested on: Dirofilaria immitis microfilariae; experiment: Dirofilaria immitis microfilariae immobility assay (DiroImager, 72 h); conditions: Dirofilaria immitis microfilariae
Method: We conducted experiments with the Missouri isolate of Dirofilaria immitis in two labs. In the first set of experiments, shown as part of Fig. 3c, D. immitis microfilariae and larval stage 3 (L3) worms were assayed in the laboratories of Bayer Animal Health GmbH (Monheim, Germany). For microfilariae immobility assays, approximately 250 freshly purified microfilariae were cultured in single wells of a 96-well microtiter plate containing supplemented RPMI 1640 medium[68],[69]. […] Microfilariae exposed to medium substituted with 1% DMSO were used as negative controls. Motility of microfilariae was evaluated after 72 h of drug exposure using an image-based approach—DiroImager, developed by Bayer Technology Services. As described in detail in refs. [68],[69], the DiroImager is an automated high-throughput platform that allows for high-resolution optical imaging of an entire 96-well microtiter plate.

[2] = tested on: Dirofilaria immitis L3/L4; experiment: Dirofilaria immitis L3/L4 motility assay (DiroImager, 72 h); conditions: Dirofilaria immitis L4
Pristionchus pacificus = Pristionchus pacificus motor disruption dose-response on solid media, 1 h; conditions: for mean % any phene (coiled, jerky-Unc or paralyzed): Pristionchus pacificus young adults, mean of three biological replicates
[3] = 3.75uM, one hour, mean of three biological replicates, third c14 line of each analog
[4] = 15uM, one hour, mean of three biological replicates, second c14 line of each analog
[5] = 60uM, one hour, mean of three biological replicates, first c14 line of each analog

| SMILES | any phene (mean % fraction of young adults exhibiting any phenotype: coiled, jerky-Unc or paralyzed) (C. elegans; [3]) [%] | any phene (mean % fraction of young adults exhibiting any phenotype: coiled, jerky-Unc or paralyzed) (C. elegans; [4]) [%] | any phene (mean % fraction of young adults exhibiting any phenotype: coiled, jerky-Unc or paralyzed) (C. elegans; [5]) [%] | EC50 (C. elegans) [µM] | % effect (motility), DIROIM MF ([1]; 0.016 µM) [%] | % effect (motility), DIROIM MF ([1]; 0.08 µM) [%] | % effect (motility), DIROIM MF ([1]; 0.4 µM) [%] | % effect (motility), DIROIM MF ([1]; 2 µM) [%] | % effect (motility), DIROIM MF ([1]; 10 µM) [%] | % effect (motility), DIROIM L4 ([2]; 2 µM) [%] | % effect (motility), DIROIM L4 ([2]; 10 µM) [%] | % effect (motility), DIROIM L4 ([2]; 50 µM) [%] | further results |
| --- | --- | --- | --- | --- | --- | --- | --- | --- | --- | --- | --- | --- | --- |
| Cc1cc([N+](=O)[O-])ccc1N1CCN(CC2CCCCC2)CC1 [Nemacol-23, 1-(cyclohexylmethyl)−4-(2-methyl-4-nitrophenyl)piperazine] | 15.8333 | 33.3333 | 63.3333 | 32.1 ± 48.2 | 0 | 0 | 0 | 0 | 0 | 0 | 5 | 100 | mean % any phene (coiled, jerky-Unc or paralyzed) (Pristionchus pacificus; conc 3.75, observed at one hour): 1.667%; mean % any phene (coiled, jerky-Unc or paralyzed) (Pristionchus pacificus; conc 15, observed at one hour): 0.8333%; mean % any phene (coiled, jerky-Unc or paralyzed) (Pristionchus pacificus; conc 60, observed at one hour): 7.5%; EC50 (Pristionchus pacificus; Pristionchus pacificus, 1 h, read-out: P. pacificus motor disruption EC50): > 60 µM |
| Clc1ccc(N2CCN(C3CCCCCC3)CC2)cc1 [Nemacol-57] |  |  |  | 2.3 | 0 | 0 | 0 | 0 | 0 |  | 10 | 15 | atypical locomotion (number of animals) (C. elegans; 3.75uM, one hour): 12 and 13 and 15; coiled (number of animals) (C. elegans; 3.75uM, one hour): 3 and 1 and 2 and 7; no phene (number of animals) (C. elegans; 3.75uM, one hour): 0 and 2 and 3; paralyzed (number of animals) (C. elegans; 3.75uM, one hour): 5 and 4 and 1 and 0; any phene: mean % fraction of young adults exhibiting any phenotype (coiled, jerky-Unc or paralyzed) (C. elegans; 3.75uM, one hour, mean of three biological replicates): 92.5%; atypical locomotion (number of animals) (C. elegans; 15uM, one hour): 0 and 2 and 4 and 6; coiled (number of animals) (C. elegans; 15uM, one hour): 17 and 15 and 14 and 10 and 11; no phene (number of animals) (C. elegans; 15uM, one hour): 0; paralyzed (number of animals) (C. elegans; 15uM, one hour): 3 and 4 and 0 and 6; atypical locomotion (number of animals) (C. elegans; 60uM, one hour): 0 and 2 and 1; coiled (number of animals) (C. elegans; 60uM, one hour): 14 and 13 and 12 and 18 and 11; no phene (number of animals) (C. elegans; 60uM, one hour): 0; paralyzed (number of animals) (C. elegans; 60uM, one hour): 6 and 5 and 7 and 2 and 8 |
| c1cc(N2CCN(CC3CCCCC3)CC2)ccn1 [Nemacol-22, 1-(cyclohexylmethyl)−4-(pyridin-4-yl)piperazine] | 0 | 10.8333 | 24.1667 | > 60 | 0 | 0 | 0 | 0 | 0 | 0 | 0 | 10 |  |
| O=[N+]([O-])c1ccc(N2CCN(CC3CC3)CC2)cc1 [Nemacol-28, 1-(cyclopropylmethyl)−4-(4-nitrophenyl)piperazine] | 0 | 4.167 | 32.5 | > 60 | 0 | 0 | 0 | 0 | 0 | 5 | 5 | 15 |  |
